Numbering of substitutions follows the chain as printed. Several values for one entry are separate records, joined by “and”; a condition that tells them apart may be missing. Equal values may be shown once. Read-outs that look alike come from different tables or passages of the source.
Tests used:
RDL = molecular target: T1, RDL (Drosophila melanogaster, UniProt P25123); type: cell-based
T1 sequence (P25123 45-606): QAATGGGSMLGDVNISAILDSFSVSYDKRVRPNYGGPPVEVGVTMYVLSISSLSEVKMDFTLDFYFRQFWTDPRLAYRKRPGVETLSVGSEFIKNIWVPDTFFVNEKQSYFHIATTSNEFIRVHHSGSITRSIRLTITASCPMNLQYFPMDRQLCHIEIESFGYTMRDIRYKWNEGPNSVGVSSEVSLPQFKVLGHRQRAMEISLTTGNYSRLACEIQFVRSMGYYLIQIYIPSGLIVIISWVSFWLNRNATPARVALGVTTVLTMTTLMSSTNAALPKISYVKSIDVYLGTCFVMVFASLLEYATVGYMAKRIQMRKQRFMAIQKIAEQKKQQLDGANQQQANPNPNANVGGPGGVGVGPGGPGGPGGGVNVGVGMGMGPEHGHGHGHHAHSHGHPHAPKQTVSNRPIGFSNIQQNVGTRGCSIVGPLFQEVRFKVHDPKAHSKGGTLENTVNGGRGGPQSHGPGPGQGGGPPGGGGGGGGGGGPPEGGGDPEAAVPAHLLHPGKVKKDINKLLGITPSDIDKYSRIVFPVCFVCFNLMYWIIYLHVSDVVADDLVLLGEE

RDLA2'V = molecular target: T2, RDLA2'V (Drosophila melanogaster, UniProt P25123, A301V); assay: cell-based; type: cell-based
T2 sequence (P25123 45-606 A301V): T1 sequence (P25123 45-606) with A257V

[1] = molecular target: T3, human α1β2 GABAA receptors (Homo sapiens, UniProt P14867+P47870); assay: Two-electrode voltage clamp of α1β2 GABAA receptors in Xenopus oocytes; type: cell-based; details: for IC50: IC50, inhibition of GABA EC50 response
T3 sequence (P14867 28-456): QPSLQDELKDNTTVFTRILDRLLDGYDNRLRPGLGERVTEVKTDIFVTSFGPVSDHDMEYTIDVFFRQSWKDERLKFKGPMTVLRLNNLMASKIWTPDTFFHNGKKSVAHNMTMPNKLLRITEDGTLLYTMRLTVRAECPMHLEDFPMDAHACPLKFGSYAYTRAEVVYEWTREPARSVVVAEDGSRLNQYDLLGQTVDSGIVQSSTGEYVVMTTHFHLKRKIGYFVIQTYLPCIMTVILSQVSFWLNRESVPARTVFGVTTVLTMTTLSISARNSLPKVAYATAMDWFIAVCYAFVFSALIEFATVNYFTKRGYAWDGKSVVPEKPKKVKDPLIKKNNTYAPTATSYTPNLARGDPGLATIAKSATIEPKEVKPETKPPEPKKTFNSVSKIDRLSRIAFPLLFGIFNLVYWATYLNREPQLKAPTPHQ
T3 sequence (P47870 26-512): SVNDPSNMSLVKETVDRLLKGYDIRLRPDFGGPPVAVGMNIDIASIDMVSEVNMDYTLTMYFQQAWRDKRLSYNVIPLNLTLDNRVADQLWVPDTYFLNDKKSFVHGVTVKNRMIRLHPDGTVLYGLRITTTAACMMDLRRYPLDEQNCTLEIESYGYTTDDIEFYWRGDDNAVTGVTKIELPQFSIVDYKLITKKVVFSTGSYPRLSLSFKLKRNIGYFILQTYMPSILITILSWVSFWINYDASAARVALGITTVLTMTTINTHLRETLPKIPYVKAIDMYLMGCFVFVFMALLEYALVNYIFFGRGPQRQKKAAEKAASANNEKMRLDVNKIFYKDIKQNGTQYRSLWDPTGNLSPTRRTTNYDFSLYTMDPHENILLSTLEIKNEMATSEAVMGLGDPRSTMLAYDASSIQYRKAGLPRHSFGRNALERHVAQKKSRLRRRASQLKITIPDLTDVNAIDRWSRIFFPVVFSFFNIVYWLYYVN

α1V2'Aβ2 = molecular target: T4, α1V2'Aβ2 (Homo sapiens, UniProt P14867+P47870, V284A); type: cell-based
T4 sequence (P14867 28-456 V284A): T3 sequence (P14867 28-456) with V257A
T4 sequence (P47870 26-512): T3 sequence (P47870 26-512)

α1β2γ2 GABAA receptors = α1β2γ2 GABAA receptors (Homo sapiens, UniProt P14867+P18507+P47870); assay: Two-electrode voltage clamp of α1β2γ2 GABAA receptors in Xenopus oocytes; type: cell-based
α1V2'Aβ2γ2 = α1V2'Aβ2γ2 (Homo sapiens, UniProt P14867+P18507+P47870, V284A); type: cell-based
RDLT6'V = molecular target: T5, RDLT6'V (Drosophila melanogaster, UniProt P25123, T305V); assay: Two-electrode voltage clamp of RDLT6'V mutant receptors in Xenopus oocytes; type: cell-based
T5 sequence (P25123 45-606 T305V): T1 sequence (P25123 45-606) with T261V

[2] = system: Canton-S adult D. melanogaster; assay: Coated vial bioassay, wild-type; type: in vivo; details: for LD50: coated vial
humans = details: cited from earlier work
[3] = system: dieldrin-resistant (Rdl) adult D. melanogaster; assay: Coated vial bioassay, dieldrin-resistant; type: in vivo; details: flies with A2'S mutation; ginkgolides up to 5000 ppm (limited by solubility)
[4] = concentration-inhibition curve at GABA EC50

Chain of α1β2γ2 GABAA receptors (P18507 40-475, one chain of several): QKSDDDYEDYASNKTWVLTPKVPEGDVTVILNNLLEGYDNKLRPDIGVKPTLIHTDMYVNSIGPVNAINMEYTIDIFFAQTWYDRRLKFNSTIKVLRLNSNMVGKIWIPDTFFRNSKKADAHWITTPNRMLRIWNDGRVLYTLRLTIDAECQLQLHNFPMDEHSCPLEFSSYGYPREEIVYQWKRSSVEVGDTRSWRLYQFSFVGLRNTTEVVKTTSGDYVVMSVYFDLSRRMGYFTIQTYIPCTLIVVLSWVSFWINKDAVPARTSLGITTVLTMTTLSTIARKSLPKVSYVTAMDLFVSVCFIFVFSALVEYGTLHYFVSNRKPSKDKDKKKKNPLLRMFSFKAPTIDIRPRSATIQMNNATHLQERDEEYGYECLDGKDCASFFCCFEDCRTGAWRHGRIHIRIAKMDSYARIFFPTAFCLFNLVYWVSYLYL
Chain of α1V2'Aβ2γ2 (P14867 28-456 V284A, one chain of several): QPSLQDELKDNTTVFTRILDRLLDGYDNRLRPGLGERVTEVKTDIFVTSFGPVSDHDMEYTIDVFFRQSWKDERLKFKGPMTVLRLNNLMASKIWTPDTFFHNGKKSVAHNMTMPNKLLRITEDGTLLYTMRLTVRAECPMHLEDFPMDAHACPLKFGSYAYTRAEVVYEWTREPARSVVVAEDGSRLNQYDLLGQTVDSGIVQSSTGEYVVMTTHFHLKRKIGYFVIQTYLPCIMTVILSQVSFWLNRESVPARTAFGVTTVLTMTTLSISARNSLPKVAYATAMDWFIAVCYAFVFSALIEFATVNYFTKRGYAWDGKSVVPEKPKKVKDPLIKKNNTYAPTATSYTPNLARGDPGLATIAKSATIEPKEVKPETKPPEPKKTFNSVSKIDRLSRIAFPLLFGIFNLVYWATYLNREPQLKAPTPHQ
Chain of α1V2'Aβ2γ2 (P18507 40-475, one chain of several): as the sequence (P18507 40-475, one chain of several) above

| Compound | nH (Hill coefficient) (RDL; [4]) | nH (Hill coefficient) (RDLA2'V; [4]) | nH (Hill coefficient) [1, 4] | nH (Hill coefficient) (α1V2'Aβ2; [4]) | nH (Hill coefficient) (α1β2γ2 GABAA receptors; [4]) | nH (Hill coefficient) (α1V2'Aβ2γ2; [4]) | LD50 ([2]; 24 h) [mg/mL] | LD50 ([2]; 48 h) [mg/mL] | LD50 ([2]; 72 h) [mg/mL] | IC50 [1] [nM] | IC50 (α1β2γ2 GABAA receptors) [nM] | other results |
| --- | --- | --- | --- | --- | --- | --- | --- | --- | --- | --- | --- | --- |
| ginkgolide B [GB] | 1.43 ± 0.14 | 1.02 ± 0.20 | 0.94 ± 0.06 | 1.13 ± 0.09 | 0.61 ± 0.06 | 1.43 ± 0.29 | 0.171 | 0.031 | 0.010 | – | – | nH (Hill coefficient) (RDLT6'V; concentration-inhibition curve): 1.00 ± 0.70 |
| N#Cc1nn(-c2c(Cl)cc(C(F)(F)F)cc2Cl)c(N)c1[S+]([O-])C(F)(F)F (stereo not shown) [fipronil] | – | – | – | – | – | – | – | – | – | – | – | U.S. Environmental Protection Agency ranking (humans): moderately toxic |
| CC(C)(C)[C@]1(O)CC2OC(=O)CC23C(=O)OC2OC(=O)[C@H](O)C231 (stereo partly shown) [BB, bilobalide] | 0.89 ± 0.09 | 1.85 ± 0.21 | 0.85 ± 0.10 | 1.06 ± 0.10 | 0.68 ± 0.10 | 1.16 ± 0.20 | 0.331 | 0.009 | 0.006 | 9330 | 22900 | IC50 (RDL): 316 nM; IC50 (α1V2'Aβ2; IC50, inhibition of GABA EC50 response): 2040 nM; IC50 (α1V2'Aβ2γ2): 3550 nM |
| NCCCC(=O)O [GABA, γ-aminobutyric acid, reference compound] | – | – | – | – | – | – | – | – | – | – | – | nH (Hill coefficient) (RDL; GABA concentration-response): 1.8 and 1.80 ± 0.20; nH (Hill coefficient) (RDLA2'V; GABA concentration-response): 2.20 ± 0.02; nH (Hill coefficient) ([1]; GABA concentration-response): 1.43 ± 0.18; nH (Hill coefficient) (α1V2'Aβ2; GABA concentration-response): 1.14 ± 0.12; increase in GABA sensitivity, α1 2' mutation vs wild type (α1V2'Aβ2; α1V2'A-containing α1β2 and α1β2γ2 receptors): 20–50 fold; nH (Hill coefficient) (α1β2γ2 GABAA receptors; GABA concentration-response): 1.64 ± 0.16; nH (Hill coefficient) (α1V2'Aβ2γ2; GABA concentration-response): 1.10 ± 0.11; nH (Hill coefficient) (RDLT6'V; GABA concentration-response): 1.44 ± 0.29 |
| ClC1=C(Cl)[C@]2(Cl)[C@@H]3[C@@H]4C[C@@H]([C@H]5O[C@@H]45)[C@@H]3[C@@]1(Cl)C2(Cl)Cl [dieldrin, reference compound] | – | – | – | – | – | – | – | – | – | – | – | LD50 ([2]; 24 h, wild-type flies): 0.002 mg/mL; LD50 ([2]; 48 h, wild-type flies): 0.002 mg/mL; LD50 ([2]; 72 h, wild-type flies): 0.0017 mg/mL; mortality / toxicity (in words) ([2]; wild-type (susceptible) flies): highly effective in killing; mortality / toxicity (in words) [3]: no significant mortality up to 72 h |
| C[C@@H]1C(=O)O[C@H]2C[C@@]34[C@H]5C[C@@H](C(C)(C)C)[C@]36[C@@H](OC(=O)[C@@H]6O)O[C@@]4(C(=O)O5)[C@]21O [GA, ginkgolide A] | 1.13 ± 0.18 | 1.48 ± 0.19 | 0.65 ± 0.08 | 0.87 ± 0.14 | 0.49 ± 0.07 | 0.86 ± 0.10 | 0.345 | 0.063 | 0.019 | 15800 | 38900 | IC50 (RDL; IC50, inhibition of GABA EC50 response, second stable level of inhibition): 3 nM; IC50 (RDL; IC50, inhibition of GABA-evoked RDL currents, as printed in text and Fig. 6): 3.1 nM; IC50 (RDL; pIC50, inhibition of GABA EC50 response, second stable level of inhibition): 3.24 nM |

From paper PMC3336786 (The FASEB Journal, 2012)
